Data reported in patent US7744590B2, “Red to near-infrared photobiomodulation treatment of the visual system in visual system disease or injury” (Medical College of Wisconsin Research Foundation, Inc., priority 2003, dated 2010).

What was measured:
[1] = test system: methanol-intoxicated rats; assay: Rod and M-cone (15 Hz/510 nm) ERG after 72 hours of methanol intoxication; assay type: in vivo, rat
Description: (§1) Methanol-intoxication Protocol.
(§2) Light-Emitting Diode Treatment.
ERG Procedures and Analyses.
All sensitivity measures were made in triplicate.
15 Hz/510 nm ERG Response. ERGs were recorded in response to a 15-Hz flickering light at a wavelength of 510 nm over a 3-log unit range of light intensity.

[2] = test system: methanol-intoxicated rats; assay: Retinal histopathology by light and electron microscopy; conditions: rat, in vivo
Source text: as §1, §2
Histopathologic Analysis.

[3] = test system: methanol-intoxicated rats
Description: Animals were randomly assigned to one of four treatment groups: (1) Untreated control, (2) LED-treated control, (3) methanol-intoxicated and (4) LED-treated methanol-intoxicated rats. Rats were placed in a thermostatically controlled plexiglass chamber (22×55×22 cm; maintained at 22-23° C.) and exposed to a mixture of N2O/O2 (1:1; flow rate 2 liters/min) for the duration of the experiment. […] In the present studies, methanol (25% w/v methanol in saline) was administered (i.p.) to N2O/O2 treated rats at an initial dose of dose 4 g/kg, followed by supplemental doses of 1.5 g/kg at 24 and 48 hours.
Light-Emitting Diode Treatment. […] Rats were placed in a plexiglass restraint device (12.7×9×7.6 cm). The LED array was positioned directly over the animal at a distance of 1 inch, exposing the entire body. Treatment consisted of irradiation at 670 nm for 2 minutes and 24 seconds resulting in a power intensity of 28 mW/cm^2 and an energy density of 4 joules/cm^2 at 5, 25 and 50 hours after the initial dose of methanol.
ERG Procedures and Analyses. ERG experiments were performed as previously described (M. T. Seme, et al., supra, 1999; M. T. Seme, et al., supra, 2001). The light stimulation apparatus consisted of a three-beam optical system. All three beams were derived from tungsten-halide lamps (50 W, 12 V). Beam intensity was controlled by using neutral density step filters. ERG recordings were differentially amplified and computer-averaged. The amplified signal was processed through a two-stage active narrow bandpass filter (the half voltage of this filter was 0.2 times the center frequency). […] The averaged responses were measured (peak-to-trough amplitude) from a calibrated digital oscilloscope display.
Before ERG analysis, ophthalmoscopic examination confirmed that all eyes were free of lenticular opacities or other gross anomalies. […] The stimulus intensity yielding a 5-μV criterion response was determined by extrapolating between the two intensity points that bracketed the 5-μV response for each animal.

## CO [methanol, Methanol]
[1]
  increase of 5 μV threshold light intensity relative to control, 15-Hz/510-nm ERG: 0.6 log units
[1]; 72 hours, no LED
  maximal 15-Hz/510-nm ERG amplitude: 18±5 μV
  maximal rod and M-cone ERG amplitude as % of the maximum control response: approximately 28%
[1]; controls −3.0±0.1 LRRI
  light intensity required to elicit a threshold (5 μV) 15-Hz/510-nm ERG response: −2.4±0.1 LRRI
[2]
  outer retinal histopathology: Pronounced histopathologic changes
[3]
  increase of light intensity required for a 5-μV UV-cone response: 0.5 log units
[3]; 72 hours, no LED
  maximal UV-cone ERG response amplitude: 18±6 μV
[3]; no LED
  maximal UV-cone ERG amplitude as % of the maximum control response: 30%
